Molecules are shown by their SMILES. Several values for one entry are separate records, joined by “and”; a condition that tells them apart may be missing. Equal values may be shown once. Read-outs that look alike come from different tables or passages of the source.

Test [1] concerns NF54^G358S-2 parasites. In words: P. falciparum proliferation assay (72 h, flow cytometry, SYBR Green I/MitoTracker). The test is classed as cell-based, Plasmodium falciparum. On the procedure: (§1) For the NF54-based lines and Dd2-B2-PfATP4^G358S and its parent, assays were initiated with cultures containing predominantly ring-stage parasites with a parasitaemia of 0.3% and a haematocrit of 1%. All assays using NF54 were performed in culture media containing 10% O + human serum. The duration of the assays was 72 h and the concentration of DMSO was <0.5% (v/v). Serial dilutions of the test compounds were performed using a Tecan D300e digital dispenser, with parasite cultures added manually. Parasite survival was assessed by flow cytometry on an Intellicyt iQue3 (Essen Bioscience), with 1× SYBR Green I (Invitrogen) and 200 nM MitoTracker Deep Red FM (Invitrogen) used to stain the nucleus and the mitochondria in live parasites, respectively. The gating strategy used to quantify parasite survival, performed using FlowJo version 10 (FlowJo LLC.), is illustrated in Supplementary Fig. 9. IC50 and IC90 values were calculated by linear interpolation of the dose-response data.

Test [2] relates to NF54^WT parasites. In words: microbe, parasite or virus in culture. In kind it is cell-based, Plasmodium falciparum. On the procedure:
as §1

With `C[C@H]1[C@@H](O)O[C@@H]2O[C@@]3(C)CC[C@H]4[C@H](C)CC[C@@H]1[C@@]24OO3` [Dihydroartemisinin], the “FC (IC50)” value in test [1] (NF54G358S-2 compared to NF54WT) is reported as 1.1 fold; in test [2] (NF54WT, reference line), 1.0 fold. Further, the “FC (IC90)” value is 1.2 fold in test [1] (NF54G358S-2 compared to NF54WT) and 1.0 fold in test [2] (NF54WT, reference line). In addition, the concentration for an effect of 90% (IC90) in test [1] (NF54G358S-2 parasites, individual experiments, read-out: IC90 values) is 2.9 nM and 2.51 nM and 2.93 nM; in test [1] (Plasmodium falciparum, NF54, NF54G358S-2 parasites, individual experiments, read-out: IC90 values) it was 2.84 nM; in test [1] (Plasmodium falciparum, NF54, NF54G358S-2 parasites, mean of the experiments, read-out: IC90 values, MEAN) it was 2.8 nM; in test [2] (NF54WT parasites, individual experiments, read-out: IC90 values), 1.85 nM and 1.87 nM and 2.79 nM; in test [2] (Plasmodium falciparum, NF54, NF54WT parasites, individual experiments, read-out: IC90 values), 2.83 nM; in test [2] (Plasmodium falciparum, NF54, NF54WT parasites, mean of the experiments, read-out: IC90 values, MEAN) it was 2.3 nM. Further, the IC50 in test [1] (Plasmodium falciparum, NF54, NF54G358S-2, 10% human serum, read-out: IC50 ± SEM) is 0.9 ± 0.1 nM; in test [1] (Plasmodium falciparum, NF54, read-out: Dihydroartemisinin IC50 values, NF54G358S-2, MEAN), 0.91 nM; in test [1] (read-out: Dihydroartemisinin IC50 values, NF54G358S-2, single experiments), 0.73 nM; in test [2] (Plasmodium falciparum, NF54, NF54WT, 10% human serum, read-out: IC50 ± SEM), 0.8 ± 0.1 nM; in test [2] (Plasmodium falciparum, NF54, read-out: Dihydroartemisinin IC50 values, NF54WT, MEAN) it was 0.84 nM; in test [2] (read-out: Dihydroartemisinin IC50 values, NF54WT, single experiments) it was 0.78 nM and 0.71 nM and 0.86 nM.

These data come from publication PMC9525273 (Nature Communications, 2022).
